Here are results for 14 compounds from PubChem BioAssay (NCI).

Holding throughout (assay): DTP human tumour cell line panel, 48 h
The subject of experiment [1] is NCI-H226 lung.
In experiment [2] the test system is OVCAR-8 ovarian.
The subject of experiment [3] is SNB-75 CNS.
The subject of experiment [4] is SNB-19 CNS.
The subject of experiment [5] is UACC-62 melanoma.
Experiment [6] concerns MDA-MB-435.
The test system of experiment [7] is RXF 393 renal.
For experiment [8], the system named is ACHN renal.
Experiment [9] has as its system MDA-N.
For experiment [10], the system named is SK-MEL-2 melanoma.
Experiment [11] relates to CCRF-CEM leukemia.

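Protocol summary: plate cells (96-well), add compound at 5 concentrations, incubate 48 h, interpolate endpoints linearly. TGI is the concentration that stops growth completely.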

The term TGI denotes the concentration at which net growth stops. `C=CCOC(=O)CC[C@H](NC(=O)[C@@H](CCC(F)(F)F)Cc1ccc(O)cc1)C(=O)OCC=C`: the TGI was more than 100 µM in experiment [1]; more than 100 µM in [2]; 77.2 µM in experiment [3]; more than 100 µM in experiment [4]; more than 100 µM in experiment [5]; 76 µM in experiment [6]. In addition, the TGI in experiment [7], in experiment [8] and in [9] was more than 100 µM throughout.

In the case of `Nc1nc(Cl)cc(NCC2(O)CCC2)n1`, the TGI in experiment [1], in experiment [10], in [2], in experiment [3], in experiment [5] and in experiment [6] was more than 100 µM each time. The TGI in experiment [7], in experiment [8] and in experiment [9] was more than 100 µM each time.

Take `CC(=O)Nc1ccc2c3c(cc(O)c2c1)N(C(=O)CCCC(=O)N1CC(CCl)c2c1cc(O)c1cc(NC(C)=O)ccc21)CC3CCl` (stereo unspecified): the TGI in [11] is less than 0.01 µM; in experiment [10], less than 0.0152 µM; in experiment [2], more than 100 µM; in experiment [3], less than 0.0262 µM; in experiment [5], 0.0173 µM; in experiment [6], 0.019 µM. Further, the TGI was less than 0.01 µM in [7] and less than 0.0112 µM in [8].

Take `Cc1nc2sccn2c1C(=O)NN`: the TGI in [1], in experiment [11], in experiment [10], in experiment [2], in [4] and in experiment [5] was more than 100 µM throughout. Besides, the TGI in experiment [7] and in experiment [8] was more than 100 µM in each case.

`COc1ccc(S(=O)(=O)N2C(=O)CCC2C(=O)NC(N)=O)cc1` (stereo unspecified): the TGI in experiment [1] was more than 100 µM; in experiment [11], more than 100 µM; in experiment [10], more than 100 µM; in experiment [2] it was more than 100 µM; in experiment [3], 1.55 µM; in experiment [4], more than 100 µM. Further, the TGI in experiment [5], in experiment [6], in experiment [8] and in experiment [9] was more than 100 µM each time.

Consider `O=C1/C(=C/c2cccc(Cl)c2)CCCc2ccccc21`, for which the TGI was 30.7 µM in [1]; 30.4 µM in [11]; 31.2 µM in experiment [10]; 33.6 µM in [2]; more than 100 µM in experiment [3]; 31.5 µM in experiment [4]. The TGI worked out at 27 µM in [5], 31.6 µM in [6], 29.6 µM in experiment [8] and 31.9 µM in [9].

For the compound `OC12c3ccccc3C1CCCCC2N1CCCC1` (stereo unspecified), the TGI in experiment [1], in experiment [11], in experiment [10], in experiment [2], in [3] and in experiment [4] was more than 100 µM throughout. The TGI in [5], in experiment [7] and in experiment [8] was more than 100 µM each time.

Consider `Cc1ccc(O)c(C(c2cccc(C(c3cc(C)ccc3O)c3cc(C)ccc3O)c2)c2cc(C)ccc2O)c1`, for which the TGI was 3.31 µM in experiment [1]; 4.61 µM in experiment [10]; 3.87 µM in experiment [2]; 3.54 µM in experiment [3]; 3.34 µM in experiment [4]; 3.51 µM in experiment [5]. For the same compound, the TGI is 3.26 µM in [6], 3.2 µM in experiment [7], 3.13 µM in [8] and 3.35 µM in experiment [9].

On to `Oc1c(Br)cc(/C=C/c2ccnc(/C=C/c3cc(Br)c(O)c(Br)c3)c2)cc1Br`, for which the concentration for total growth inhibition (TGI) in experiment [11] is more than 100 µM; in experiment [10], 34.4 µM; in [2] it was 83.9 µM; in [3] it was 58.5 µM; in [4], more than 100 µM; in [5], 73.8 µM. Also, the TGI in experiment [6] was 63 µM; in [8], more than 100 µM; in experiment [9], 91.3 µM.

In the case of `FC1(F)[Se]C2C3CCC(C3)C2C1(F)F` (stereo unspecified), the TGI in [1], in [10], in [2], in [3], in [4] and in experiment [5] was more than 100 µM in each case. In addition, the TGI in experiment [6], in experiment [7], in experiment [8] and in experiment [9] was more than 100 µM in each case.

For the compound `CC1=NN(c2nc(N)nc(CN3CCOCC3)n2)C(C)(C)C1`, the concentration for total growth inhibition (TGI) in experiment [1] was more than 100 µM; in [11], 90.8 µM; in [10] it was more than 100 µM; in [2], more than 100 µM; in [3], more than 100 µM; in experiment [4], more than 100 µM. In addition, the TGI in [5], in [6], in [7] and in [8] was more than 100 µM throughout.

As for `N#CC12C(=O)N3C(=NC(c4ccco4)NC3c3ccco3)C1(C#N)C(c1ccco1)NC1=C2CCCC1` (stereo unspecified), the TGI in experiment [1], in [10], in experiment [2], in experiment [4], in [5] and in [6] was more than 100 µM throughout. Also, the TGI in experiment [7], in experiment [8] and in experiment [9] was more than 100 µM each time.

On to `C=CC(=O)Nc1ccc(NC(=O)C=C)c2c1C(=O)c1ccccc1C2=O`, for which the TGI in [10] is more than 100 µM; in experiment [2], more than 100 µM; in [4], more than 100 µM; in [5], 90.8 µM; in experiment [8], more than 100 µM; in experiment [9] it was more than 100 µM.

Turning to `COc1ccc(CNc2cnc3cc(N)ccc3n2)cc1`, the TGI in experiment [1], in [11], in [10], in experiment [2], in [3] and in experiment [4] was more than 100 µM throughout. Besides, the TGI in experiment [5], in experiment [7] and in experiment [8] was more than 100 µM each time.
